Experimental data: US9944618B2, “Inhibiting neurotransmitter reuptake” (Mayo Foundation for Medical Education and Research, priority 2013, dated 2018)
Where two headings read alike, the source gives them in different places.

Experiments:
[1] = target: human serotonin transporter (Homo sapiens (Human), UniProt P31645); assay: Human SERT (serotonin transporter) uptake assay; format: cell-based; settings: read-out: hSERT Ki
Procedure, shortened: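 HEK293F cells transfected with human SERT, about 60,000 per well, settled for ≥3 h at 37° C before compound addition. Uptake was followed with a fluorescent transporter dye in HBSS with 0.02 M HEPES. Background came from 10 μM fluoxetine, nomifensine was the control, n=3.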

[2] = pKa of basic centres (Table 1); format: physicochemical
[3] = target: CYP2D6 (Homo sapiens (Human), UniProt P10635); assay: Cytochrome P450 inhibition assay, recombinant CYP2D6 (MAMC substrate); format: in vitro ADME; settings: recombinant enzyme
Chain of CYP2D6 (P10635 whole entry): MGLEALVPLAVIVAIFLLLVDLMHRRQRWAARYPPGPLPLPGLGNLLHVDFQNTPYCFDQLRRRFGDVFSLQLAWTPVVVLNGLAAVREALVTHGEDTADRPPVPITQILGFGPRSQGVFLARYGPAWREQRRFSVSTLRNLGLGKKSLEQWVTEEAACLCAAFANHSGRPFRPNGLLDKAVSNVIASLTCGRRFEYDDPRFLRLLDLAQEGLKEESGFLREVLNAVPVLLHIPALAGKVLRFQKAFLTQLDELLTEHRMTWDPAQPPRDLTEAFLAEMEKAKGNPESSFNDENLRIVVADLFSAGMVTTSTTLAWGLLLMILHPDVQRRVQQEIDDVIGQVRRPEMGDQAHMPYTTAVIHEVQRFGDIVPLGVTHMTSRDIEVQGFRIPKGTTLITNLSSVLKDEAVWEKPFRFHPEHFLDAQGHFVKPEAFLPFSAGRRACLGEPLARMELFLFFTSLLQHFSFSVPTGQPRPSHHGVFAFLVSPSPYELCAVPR

[4] = target: human norepinephrine transporter (Homo sapiens (Human), UniProt P23975); assay: Human NET (norepinephrine transporter) uptake assay; format: cell-based; settings: read-out: hNET Ki
Chain of human norepinephrine transporter (P23975 whole entry): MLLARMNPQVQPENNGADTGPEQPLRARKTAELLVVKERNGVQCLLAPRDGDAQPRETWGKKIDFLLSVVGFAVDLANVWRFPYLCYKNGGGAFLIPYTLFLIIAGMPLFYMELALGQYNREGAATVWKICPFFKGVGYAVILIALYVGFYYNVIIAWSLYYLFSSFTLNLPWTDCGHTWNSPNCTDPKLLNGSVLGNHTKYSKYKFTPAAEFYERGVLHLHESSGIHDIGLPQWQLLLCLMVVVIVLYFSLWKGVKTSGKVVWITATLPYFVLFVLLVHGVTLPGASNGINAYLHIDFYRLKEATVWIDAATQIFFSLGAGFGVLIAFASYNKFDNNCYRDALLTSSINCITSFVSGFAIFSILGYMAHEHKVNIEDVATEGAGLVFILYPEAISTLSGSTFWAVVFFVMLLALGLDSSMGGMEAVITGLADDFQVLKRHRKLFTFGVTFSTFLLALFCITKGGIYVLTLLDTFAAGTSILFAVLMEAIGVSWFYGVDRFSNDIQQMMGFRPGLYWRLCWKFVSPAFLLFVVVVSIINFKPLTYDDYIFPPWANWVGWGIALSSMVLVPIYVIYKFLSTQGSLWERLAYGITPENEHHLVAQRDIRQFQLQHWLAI
Procedure, shortened: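 HEK293F cells transfected with human NET were thawed, plated at about 60,000 cells/well and held at 37 °C for at least 3 h. Compounds came from 10 mM DMSO stocks, with nomifensine as control, in 1×HBSS/0.02 M HEPES. Uptake was followed with a neurotransmitter transporter dye, dosed as % of vendor reconstitution, in triplicate.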

[5] = target: hERG (Homo sapiens (Human), UniProt Q12809); assay: Human ERG (hERG) assay, hERG currents in hERG-expressing CHO cells; format: cell-based; settings: hERG-expressing CHO cells
Chain of hERG (Q12809 whole entry): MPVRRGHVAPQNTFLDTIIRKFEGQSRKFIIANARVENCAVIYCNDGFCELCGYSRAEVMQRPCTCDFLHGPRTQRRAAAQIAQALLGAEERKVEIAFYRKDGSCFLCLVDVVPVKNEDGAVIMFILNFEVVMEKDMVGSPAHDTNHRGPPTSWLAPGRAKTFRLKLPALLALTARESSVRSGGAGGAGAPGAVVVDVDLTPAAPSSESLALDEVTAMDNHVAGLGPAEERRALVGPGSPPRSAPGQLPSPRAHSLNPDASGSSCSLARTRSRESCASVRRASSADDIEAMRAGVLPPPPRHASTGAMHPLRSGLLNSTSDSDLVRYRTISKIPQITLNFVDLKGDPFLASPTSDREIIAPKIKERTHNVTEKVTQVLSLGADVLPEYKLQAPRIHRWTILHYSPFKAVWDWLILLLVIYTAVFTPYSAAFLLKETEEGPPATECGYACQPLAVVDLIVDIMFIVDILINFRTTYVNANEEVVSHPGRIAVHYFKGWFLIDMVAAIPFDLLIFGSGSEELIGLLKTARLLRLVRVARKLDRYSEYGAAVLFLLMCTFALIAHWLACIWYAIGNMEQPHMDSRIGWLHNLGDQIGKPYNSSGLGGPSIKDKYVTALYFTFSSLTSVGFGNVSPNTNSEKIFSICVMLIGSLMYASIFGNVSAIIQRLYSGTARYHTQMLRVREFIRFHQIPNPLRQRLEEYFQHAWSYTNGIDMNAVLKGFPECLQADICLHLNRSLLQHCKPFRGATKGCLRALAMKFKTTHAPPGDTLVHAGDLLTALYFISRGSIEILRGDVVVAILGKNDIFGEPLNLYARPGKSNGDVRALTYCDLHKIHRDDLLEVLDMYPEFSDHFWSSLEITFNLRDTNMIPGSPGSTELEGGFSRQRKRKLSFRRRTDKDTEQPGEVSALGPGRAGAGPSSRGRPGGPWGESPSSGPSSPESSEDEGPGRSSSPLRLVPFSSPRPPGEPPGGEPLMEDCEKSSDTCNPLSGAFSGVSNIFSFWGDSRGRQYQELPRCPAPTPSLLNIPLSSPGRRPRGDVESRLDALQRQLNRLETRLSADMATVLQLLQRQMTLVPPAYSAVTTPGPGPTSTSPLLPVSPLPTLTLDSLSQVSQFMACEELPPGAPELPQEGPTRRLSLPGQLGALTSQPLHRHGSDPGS
Source text: The voltage-dependent potassium channel encoded by the human ether-a-go-go-related gene (hERG) is believed to play a key role in repolarisation of the ventricular cardiac action potential. Changes in its activity, caused either by inherited mutations of the gene sequence or pharmacological modification, can lead to prolongation of action potential duration. This can lead to prolongation of the QT interval recorded in man on an electrocardiogram and to a potentially fatal cardiac arrhythmia known as Torsades de Pointes.
hERG currents were recorded from hERG-expressing CHO cells. The biophysical and pharmacological characterization of the hERG currents in these cells was performed.

[6] = target: human dopamine transporter (Homo sapiens (Human), UniProt Q01959); assay: Human DAT (dopamine transporter) uptake assay; format: cell-based; settings: read-out: hDAT Ki
Chain of human dopamine transporter (Q01959 whole entry): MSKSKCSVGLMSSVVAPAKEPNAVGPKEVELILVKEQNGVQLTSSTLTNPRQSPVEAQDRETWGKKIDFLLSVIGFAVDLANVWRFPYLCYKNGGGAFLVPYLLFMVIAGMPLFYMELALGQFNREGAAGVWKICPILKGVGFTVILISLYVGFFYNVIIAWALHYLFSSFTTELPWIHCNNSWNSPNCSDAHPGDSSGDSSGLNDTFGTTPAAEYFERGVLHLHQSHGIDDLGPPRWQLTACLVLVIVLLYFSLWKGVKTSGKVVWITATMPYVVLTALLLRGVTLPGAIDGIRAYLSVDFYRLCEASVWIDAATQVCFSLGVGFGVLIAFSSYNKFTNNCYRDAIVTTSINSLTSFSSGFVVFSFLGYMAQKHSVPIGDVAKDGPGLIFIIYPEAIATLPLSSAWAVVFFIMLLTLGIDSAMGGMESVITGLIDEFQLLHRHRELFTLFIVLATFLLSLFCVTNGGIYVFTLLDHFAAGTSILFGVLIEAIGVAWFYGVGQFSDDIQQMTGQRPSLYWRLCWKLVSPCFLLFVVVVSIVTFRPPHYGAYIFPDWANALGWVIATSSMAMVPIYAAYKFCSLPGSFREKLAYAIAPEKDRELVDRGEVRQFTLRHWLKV
Procedure, shortened: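 Uptake inhibition was measured in HEK293F cells transfected with human DAT, plated at ~60,000 cells/well and settled ≥3 h at 37 °C. Compounds came from 10 mM DMSO stocks. Read-out was uptake of a fluorescent neurotransmitter transporter dye in HBSS with 0.02 M HEPES, with dye level given as % of vendor reconstitution; n=3.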

[7] = target: CYP3A4 (Homo sapiens (Human), UniProt P08684); assay: Cytochrome P450 inhibition assay, recombinant CYP3A4 (BFC substrate); format: in vitro ADME; settings: recombinant enzyme
Chain of CYP3A4 (P08684 whole entry): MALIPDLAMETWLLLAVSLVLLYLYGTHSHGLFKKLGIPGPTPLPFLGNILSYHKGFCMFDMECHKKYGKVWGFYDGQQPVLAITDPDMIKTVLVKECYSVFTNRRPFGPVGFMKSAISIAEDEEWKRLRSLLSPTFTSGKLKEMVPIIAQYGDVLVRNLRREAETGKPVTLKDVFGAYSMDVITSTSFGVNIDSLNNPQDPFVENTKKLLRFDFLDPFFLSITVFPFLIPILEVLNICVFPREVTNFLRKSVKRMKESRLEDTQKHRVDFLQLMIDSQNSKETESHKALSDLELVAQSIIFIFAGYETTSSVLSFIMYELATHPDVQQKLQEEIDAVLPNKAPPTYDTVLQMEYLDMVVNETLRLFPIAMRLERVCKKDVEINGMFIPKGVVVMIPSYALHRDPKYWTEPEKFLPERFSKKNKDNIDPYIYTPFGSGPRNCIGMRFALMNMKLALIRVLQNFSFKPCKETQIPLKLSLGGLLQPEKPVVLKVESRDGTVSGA
Experimental: Recombinant enzymes, 3A4 and 2D6, generated using the ABL yeast expression system were used. […] The assay mixture also included K2HPO4 (pH 7.4; conc. 0.1 M) and NADPH (conc. 1 mM). The incubation time was 30 minutes, and the reference inhibitor was A-naphthoflavone. For CYP2D6, the enzyme amount was 2 pmol per well, and the substrate (7-methoxy-4-(aminomethyl)-coumarin; MAMC) was used at 20 μM. The assay mixture also included K2HPO4 (pH 7.4; conc. 0.1 M) and NADPH (conc. 0.06 mM). The incubation time was 35 minutes, and the reference inhibitor was quinidine.
Briefly, 0.6 μL of serially diluted compound was added to 75 μL water. 10 μL of diluted compound in water was then added to each assay plate. 20 μL of a K2HPO4, enzyme, and substrate mixture was added. After 10 minutes of room temperature pre-incubation, 10 μL of NADPH was added, and the plates were placed at 37° C. for 30 or 35 minutes depending on the enzyme being tested. After the incubation was complete, 20 μL of 0.1% Tris/ACN was added to the plate. The plate was read on a FluorStar fluorescence plate reader.

[8] = first base, e.g., an aliphatic primary, secondary, or tertiary amine
[9] = first base, e.g., an aliphatic primary, secondary, or tertiary amine, read-out: pKa (Base 1)
[10] = second base in the same molecule (if present), read-out: pKa (Base 2)

Chain of human serotonin transporter (P31645 whole entry): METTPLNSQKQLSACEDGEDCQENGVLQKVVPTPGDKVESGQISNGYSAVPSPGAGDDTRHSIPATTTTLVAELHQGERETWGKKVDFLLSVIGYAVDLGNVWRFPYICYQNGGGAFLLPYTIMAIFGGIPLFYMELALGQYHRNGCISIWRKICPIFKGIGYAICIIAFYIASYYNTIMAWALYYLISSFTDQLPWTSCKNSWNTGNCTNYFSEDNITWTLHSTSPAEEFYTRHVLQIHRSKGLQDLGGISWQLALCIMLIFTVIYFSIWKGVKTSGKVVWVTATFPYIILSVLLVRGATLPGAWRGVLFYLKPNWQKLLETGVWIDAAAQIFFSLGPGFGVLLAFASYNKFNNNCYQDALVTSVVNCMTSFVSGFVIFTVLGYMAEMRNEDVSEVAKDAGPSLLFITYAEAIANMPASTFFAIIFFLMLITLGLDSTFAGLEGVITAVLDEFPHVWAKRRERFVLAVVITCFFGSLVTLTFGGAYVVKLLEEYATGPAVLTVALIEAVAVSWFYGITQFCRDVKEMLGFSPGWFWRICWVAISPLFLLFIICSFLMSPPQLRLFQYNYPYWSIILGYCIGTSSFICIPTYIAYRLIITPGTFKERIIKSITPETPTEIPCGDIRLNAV

SMILES	Ki [1] [nM]	pKa (Base 1) [2, 8]	IC50 [3] [nM]	Ki [4] [nM]	IC50 [5] [nM]	Ki [6] [nM]	IC50 [7] [nM]	pKa [2, 9]	pKa [2, 10]
CNC[C@@H](c1ccc(Cl)c(Cl)c1)[C@@H](O)c1ccsc1 [Compound 153]	7.5	9.5	1400	3.9	1600	33.8	20000	–	–
CNC[C@@H](c1ccc(Cl)c(Cl)c1)[C@H](O)c1cccc(NC(C)=O)c1 [Compound 98]	167	–	850	38.8	33000	216	20000	9.4	–
CNC[C@H](c1ccc2ccccc2c1)[C@H](O)c1ccc2c(c1)OCCO2 [Compound 143]	7.9	–	160	6.6	15000	106	7600	9.7	–
CNC[C@H](c1ccc(Cl)c(Cl)c1)[C@@H](O)c1ccccc1[N+](=O)[O-] [Compound 65]	243	–	43	7.5	19000	18.1	7800	9.3	–
CNC[C@H](c1ccc2ccccc2c1)[C@H](OCC(=O)N1CC[C@H](O)C1)c1ccccc1 [Compound 19]	4.3	–	20000	1.9	33000	17	20000	9.6	–
CNC[C@H](c1ccc2ccccc2c1)[C@H](OCc1nc(C)no1)c1ccccc1 [Compound 67]	0.7	–	330	8.2	15000	69.7	20000	9.6	–
CNCC(Cc1ccccc1O)c1ccc2ccccc2c1 (centres unmarked) [Compound 69]	21.2	10	510	9	9500	21.9	20000	–	–
CNC[C@@H](c1ccc2ccccc2c1)[C@@H](O)c1ccc2c(c1)OCCO2 (racemic) [Compound 145]	9.4	–	310	10.9	11000	134	19000	9.7	–
CN(C)C[C@H](c1ccc2ccccc2c1)[C@H](O)c1cccs1 (racemic) [Compound 135]	21.4	–	910	11.7	3100	58.1	≥ 20000	8.9	–
CNC[C@H](c1ccc(Br)c(Cl)c1)[C@@H](O)c1ccccc1 [Compound 21]	66.4	–	470	2	23000	32.4	20000	9.4	–
CNC[C@H](c1ccc2ccccc2c1)[C@H](O)c1ccccc1C (racemic) [Compound 56]	6.7	–	240	4.7	22000	40.4	11000	9.7	–
CNC[C@@H](c1ccc2ccccc2c1)[C@H](O)c1ccccc1F [Compound 96]	9.9	–	1100	36.8	33000	158	20000	9.7	–
CNC[C@H](c1ccc(Cl)c(Cl)c1)[C@@H](O)c1ccccc1SC [Compound 97]	78.4	–	180	38.2	8000	22.6	15000	9.4	–
CCc1ccccc1[C@@H](O)[C@H](CNC)c1ccc(Cl)c(Cl)c1 [Compound 158]	38.6	–	98	6.3	4400	55.4	3800	9.4	–
CNCC(CCc1ccccc1)[C@H](O)c1ccccc1 (some centres unmarked) [Compound 66]	46.7	–	260	8.1	15000	28.9	20000	10.1	–
CNC[C@@H](c1ccc2ccccc2c1)[C@@H](O)c1cccnc1 [Compound 49]	5.6	–	1700	3.8	25000	213	20000	9.6	5.1

SMILES	Ki [1] [nM]	pKa (Base 1) [2, 8]	IC50 [3] [nM]	Ki [4] [nM]	IC50 [5] [nM]	Ki [6] [nM]	IC50 [7] [nM]	pKa [2, 9]	pKa [2, 10]
CNC[C@H](c1ccc(Cl)c(Cl)c1)[C@@H](O)c1cccc(I)c1 [Compound 165]	341	–	81	38.6	3800	118	2900	9.4	–
CNC[C@@H](c1ccc(Cl)c(Cl)c1)[C@@H](O)c1cccc(SC)c1 [Compound 154]	38.4	9.4	290	37.1	2200	40.3	6900	–	–
CNC[C@H](c1ccc2ccccc2c1)[C@H](OCc1noc(C)n1)c1ccccc1 [Compound 22]	2.1	–	180	2	15000	56.7	15000	9.6	–
CNC[C@H](c1ccc2ccccc2c1)[C@@H](Cl)c1ccccc1 [Compound 61]	0.9	–	300	5.8	9800	14.6	20000	9.5	–
CNC[C@H](c1ccc(Cl)c(Cl)c1)[C@@H](O)c1ccccc1-c1cccs1 [Compound 100]	361	–	64	43.8	21000	27.4	8200	9.4	–
CNC[C@H](c1ccc(Cl)c(Cl)c1)[C@H](O)c1cccc(OC)n1 [Compound 167]	18.8	–	400	10.8	12000	132	20000	9.2	–
CNC[C@H](c1ccc(Cl)c(Cl)c1)[C@H](O)c1ccccc1OC [Compound 160]	9.2	–	490	9.1	8000	83.5	3500	9.4	–
CNCC(C[C@H](O)c1ccccc1)c1ccc2ccccc2c1 (some centres unmarked) [Compound 85]	16.1	–	1000	16.4	21000	247	20000	10.1	–
CNCC(Cc1cccnc1)c1ccc2ccccc2c1 (centres unmarked) [Compound 74]	13.6	9.9	790	10.3	20000	109	8100	–	5.2
CNC[C@H](c1ccc2ccccc2c1)[C@H](Cl)c1ccccc1 [Compound 146]	10.1	–	92	9.3	15000	144	1300	9.5	–
CN(C)C[C@H](c1ccc2ccccc2c1)[C@H](OCCO)c1ccccc1 [Compound 89]	1.8	–	1800	21.4	6600	25	20000	8.9	–
CNCC(Cc1cccs1)c1ccc2ccccc2c1 (racemic) [Compound 40]	3.3	–	960	3.2	4100	114	19000	10	–
CNC[C@H](c1ccc2ccccc2c1)[C@H](OCC(=O)NC1CC1)c1ccccc1 [Compound 13]	5.4	–	400	1.6	19000	19.7	17000	9.6	–
CNC[C@H](c1ccc2ccccc2c1)[C@H](O)c1cncc(OC)c1 [Compound 92]	9.3	–	810	28	33000	216	20000	9.6	4.5
CNC[C@H](c1ccc(Cl)c(Cl)c1)[C@H](O)c1ccccc1I [Compound 164]	78.1	–	250	41.6	4100	113	5300	9.4	–
CNC[C@@H](c1ccc2ccccc2c1)[C@@H](O)c1ccccc1F [Compound 78]	15.3	–	1100	14.3	12000	26.1	20000	9.7	–
